According to patent US20210275545A1, “METHOD OF TREATING CANCER PREFERABLY CHARACTERIZED BY EXPRESSION OF A FUSION PROTEIN COMPRISING A MEMBER OF THE E-TWENTY-SIX FAMILY BY ADMINISTERING AN AGENT THAT INHIBITS THE SYNTHESIS AND/OR ACTIVITY OF CORTISOL” (Yeda Research and Development Co. Ltd., priority 2018, published 2021):

Assays:
[1] = tested on: glucocorticoid response element (GRE); details: DEX and RU486 each at 100 nM, 24 hours
Procedure: HEK-293T cells (1.2×10^4) were seeded in 48-well plates. […] In addition, cells were co-transfected with increasing amounts of a GR expression vector (A), a FLI1-encoding vector (B) or with a combination of both a FLI1 vector and a vector encoding GR, either wild type (C) or a mutant receptor (GRdim−, panel D). Luciferase activity was determined, in biological triplicates, 48 hours later and presented in bar plots. Cells that were pre-transfected with the reporter plasmid were used for normalization. *, p≤0.05; ***, p≤0.001. […] This was followed by cell lysis and determination of luciferase activity in biological triplicates.
Luciferase-reporter assays: Cells were co-transfected with a luciferase plasmid containing the consensus glucocorticoid response element (GRE) along with pGL3-Control (Promega, Madison, Wis.). Luciferase activity was determined using the dual-luciferase reporter assay system (Promega). Firefly luciferase luminescence values were normalized to Renilla luminescence.

CHLA9 and RD-ES cells = experiment: Transwell migration assay of ES cells; format: cell-based; details: DEX 1 μM, RU486 1 μM, D06 10 μM; 20 hours
Procedure: (A) CHLA9 cells were seeded in 100-mm dishes. Once they reached sub-maximal density, cells were starved overnight for serum factors. […] Cells were then extracted and the lysates were processed for co-immunoprecipitation assays using an antibody against GR followed by immunobloting that used an antibody against EWS. The image shown is representative of 3 biological replicates. Signals were quantified and normalized (see numbers below each lane). EB, empty beads. […] (C-D) CHLA9 cells were seeded on the upper faces of either Transwell migration chambers or Matrigel-coated invasion chambers, and further incubated for 20 hours in full medium. Control siRNAs or siRNAs specific to either GR or EWS-FLI1 were added to cells 24 hours prior to seeding, and both cell migration and invasion were measured 20 hours later. […] Cells that reached the lower faces of the chambers were fixed and stained. Shown are representative images of stained cells. The bar plots show quantification, using ImageJ, of the area covered by cells. *, p≤0.05, **, p≤0.005. Bars, 500 μm. […] The bar plots show quantification, using ImageJ, of the area covered by cells. *, p≤0.05, **, p≤0.005. […]
(A) RD-ES cells were seeded in 100-mm dishes. […] Cell migration/invasion was determined 20 hours later.

RD-ES xenograft = RD-ES xenograft tumor growth and KI67 staining; format: in vivo, SCID mice; details: 1 mg/kg daily
Source text: FIGS. 6A-E. A GR antagonist and a cortisol-lowering drug impede growth of human xenograft models of Ewing's sarcoma. (A) RD-ES cells (2×10^6) were implanted subcutaneously in the right flank of SCID mice. Once tumors reached an approximate size of 150 mm^3, animals were randomized into three groups (n=10). […] The means of tumor volumes (+SEM) are shown. […] (B) Shown are representative images of immunofluorescent staining for KI67 in paraffin-embedded sections of tumors from A, using an antibody against KI67. Scale bars, 100 μm. Also shown is the scatter plot depicting quantification of KI67 staining in randomly selected 4 fields of a representative tumor from each group. […] (C and D) A673 cells (2×10^6) were implanted in female SCID mice. Once tumors reached the size of 150 mm^3, animals were randomized into two groups (n=9). Each group was daily treated with either vehicle, or Metyrapone (25 mg/kg) and tumorigenic growth was monitored. Actual tumor volumes (±SEM) are presented. Also shown are tumors harvested from each group of animals; **p<0.001. […] Luminescence was quantified and presented in a bar graph.
ES animal model studies: All animal experiments were approved by the Weizmann Institute's Animal Care and Use Committee. […] Tumor growth was monitored once every 3 days using a caliper. […]

## CC#C[C@]1(O)CC[C@H]2[C@@H]3CCC4=CC(=O)CCC4=C3[C@@H](c3ccc(N(C)C)cc3)C[C@@]21C [RU486, Mifepristone]
[1]
  effect of co-treatment on DEX-induced GRE activity: inhibitory
CHLA9 and RD-ES cells
  cell migration: inhibited
RD-ES xenograft
  tumor growth: significantly slower tumor growth
RD-ES xenograft; relative to control group
  KI67 staining of tumor sections (proliferation): slower proliferation rates
